Experimental data from patent US9227979B2, “Fluorescent antagonists of the A3 adenosine receptor” (The United States of America, as represented by the …, priority 2012, dated 2016).
Like-named read-outs stand apart in the source and are kept apart here.

Columns and labels:
hA1 AR = hA1 AR (Homo sapiens (Human), UniProt P30542); experiment: Radioligand membrane binding assay at hA1 AR ([3H]R-PIA); settings: for Ki: CHO cells expressing hA1AR, agonist radioligand [3H]R-PIA, read-out: A1 Ki
Protocol: (§1) For cell cultures used in radioligand binding assays, after harvest and homogenization, the cells were centrifuged at 200×g for 10 min, and the pellet was re-suspended in 50 mM Tris-HCl buffer (pH 7.5), containing 10 mM MgCl2. The suspension was homogenized with an electric homogenizer for 10 s and was then re-centrifuged at 20,000×g for 20 min at 4° C. The resultant membrane pellets were resuspended in buffer in the presence of 3 units/ml adenosine deaminase, and the suspension was stored at −80° C. until the binding experiments. The protein concentration was measured using the Bradford assay. Radioligand membrane binding assays

hA2AAR = hA2AAR (Homo sapiens (Human), UniProt P29274); experiment: Radioligand membrane binding assay at hA2A AR ([3H]CGS21680); settings: for Ki: read-out: A2A Ki
Sequence of hA2AAR (P29274 whole entry): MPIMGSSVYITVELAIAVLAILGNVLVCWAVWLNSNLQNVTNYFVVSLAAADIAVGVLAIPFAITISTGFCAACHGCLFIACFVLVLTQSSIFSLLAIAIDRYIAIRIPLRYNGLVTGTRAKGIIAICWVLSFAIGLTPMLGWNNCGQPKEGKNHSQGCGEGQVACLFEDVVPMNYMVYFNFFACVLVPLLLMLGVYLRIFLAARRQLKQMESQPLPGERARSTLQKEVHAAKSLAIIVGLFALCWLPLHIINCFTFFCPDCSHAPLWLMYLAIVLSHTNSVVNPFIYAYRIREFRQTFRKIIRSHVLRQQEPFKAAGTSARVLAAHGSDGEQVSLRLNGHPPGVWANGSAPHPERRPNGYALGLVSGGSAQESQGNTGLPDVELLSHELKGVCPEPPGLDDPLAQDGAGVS
Protocol: as §1

hA3AR = hA3AR (Homo sapiens (Human), UniProt P0DMS8); experiment: Radioligand membrane binding assay at hA3AR ([125I]I-AB-MECA); settings: read-out: A3 Ki
Sequence of hA3AR (P0DMS8 whole entry): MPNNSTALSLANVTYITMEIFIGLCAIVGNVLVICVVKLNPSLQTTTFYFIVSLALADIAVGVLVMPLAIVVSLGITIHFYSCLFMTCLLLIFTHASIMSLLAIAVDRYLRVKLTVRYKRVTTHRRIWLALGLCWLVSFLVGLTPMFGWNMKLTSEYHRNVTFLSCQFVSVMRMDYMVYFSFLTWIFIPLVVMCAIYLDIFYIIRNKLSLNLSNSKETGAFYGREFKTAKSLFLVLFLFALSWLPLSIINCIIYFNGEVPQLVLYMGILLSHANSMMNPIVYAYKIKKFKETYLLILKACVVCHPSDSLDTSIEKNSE
Protocol: as §1

[1] = Table 1, HEK293 cells expressing hA2AAR, [3H]CGS21680
[2] = Table 1, CHO cells expressing hA3AR, [125I]I-AB-MECA
[3] = Table 1, inhibition of radioligand binding at 10 μM

Sequence of hA1 AR (P30542 whole entry): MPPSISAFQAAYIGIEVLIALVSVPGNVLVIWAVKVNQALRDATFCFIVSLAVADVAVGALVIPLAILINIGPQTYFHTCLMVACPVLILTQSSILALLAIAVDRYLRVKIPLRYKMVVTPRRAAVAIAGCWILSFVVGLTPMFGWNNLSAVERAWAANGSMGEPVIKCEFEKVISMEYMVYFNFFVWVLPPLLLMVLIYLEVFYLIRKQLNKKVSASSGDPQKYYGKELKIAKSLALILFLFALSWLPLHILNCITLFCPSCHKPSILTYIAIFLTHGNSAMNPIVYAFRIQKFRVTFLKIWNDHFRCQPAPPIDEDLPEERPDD

Structure (SMILES)	Ki (hA1 AR; Table 1) [µM]	Ki (hA2AAR; [1]) [nM]	Ki (hA3AR; [2]) [nM]	A1 % inhibition (hA1 AR; [3])	A2A % Inhibition (hA2AAR; [3])	Ki (hA2AAR; Table 3) [nM]	Ki (hA3AR; Table 3) [nM]	A1 % inhibition (hA1 AR; Table 3)	melting point
Cn1cc2c(nc(NNC(=S)Nc3ccc(-c4c5ccc(=O)cc-5oc5cc(O)ccc45)c(C(=O)O)c3)n3nc(-c4ccco4)nc23)n1 [Compound 1]	9.5	920 ± 110	780	–	–	–	–	–	–
Cn1cc2c(nc(NCCCNC(=S)Nc3ccc(-c4c5ccc(=O)cc-5oc5cc(O)ccc45)c(C(=O)O)c3)n3nc(-c4ccco4)nc23)n1 [Compound 2]	–	2480 ± 420	2390 ± 660	(5 ± 2%)	–	–	–	–	–
Cn1cc2c(nc(NCCCCNC(=S)Nc3ccc(-c4c5ccc(=O)cc-5oc5cc(O)ccc45)c(C(=O)O)c3)n3nc(-c4ccco4)nc23)n1 [Compound 3]	–	460 ± 60	720	(7 ± 5%)	–	–	–	–	–
Cn1cc2c(nc(NCCCCCNC(=S)Nc3ccc(-c4c5ccc(=O)cc-5oc5cc(O)ccc45)c(C(=O)O)c3)n3nc(-c4ccco4)nc23)n1 [Compound 4]	–	1750 ± 470	5660 ± 610	(9 ± 5%)	–	–	–	–	–
Cn1cc2c(nc(NCCOOCCCCNC(=S)Nc3ccc(-c4c5ccc(=O)cc-5oc5cc(O)ccc45)c(C(=O)O)c3)n3nc(-c4ccco4)nc23)n1 [Compound 5]	–	–	9390 ± 1730	(0%)	(30 ± 6%)	–	–	–	–
Cn1cc2c(nc(NCCCOCCOOCCCCCNC(=S)Nc3ccc(-c4c5ccc(=O)cc-5oc5cc(O)ccc45)c(C(=O)O)c3)n3nc(-c4ccco4)nc23)n1 [Compound 6]	–	6010 ± 420	7090 ± 370	(0%)	–	–	–	–	–
C#CCCCC(=O)Nc1nc2ccc(Cl)cc2c2nc(-c3ccco3)nn12 [Compound 8, N-(9-Chloro-2-(furan-2-yl)-[1,2,4]triazolo[1,5-c]quinazolin-5-yl)hex-5-ynamide]	0.17 ± 0.04	51 ± 10	33.5 ± 10.1	–	–	–	–	–	–
Cn1cc2c(nc(NC(=O)Nc3ccc(CC(=O)O)cc3)n3nc(-c4ccco4)nc23)n1 [Compound 11, 2-(4-(3-(2-(furan-2-yl)-8-methyl-8H-pyrazolo[4,3-e][1,2,4]triazolo[1,5-c]pyrimidin-5-yl)ureido)phenyl)acetic acid]	–	–	–	–	–	1010	128 ± 26	–	–
Cn1cc2c(nc(NC(=O)Nc3ccc(CC(=O)NCCCNC(=O)OC(C)(C)C)cc3)n3nc(-c4ccco4)nc23)n1 [Compound 12, tert-Butyl (3-(2-(4-(3-(2-(furan-2-yl)-8-methyl-8H-pyrazolo[4,3-e][1,2,4]triazolo[1,5-c]pyrimidin-5-yl)ureido)phenyl)acetamido)propyl)carbamate]	–	–	–	–	–	150 ± 11	2.75 ± 0.2	15% ± 5%	198 to 205 °C
Cn1cc2c(nc(NC(=O)Nc3ccc(CC(=O)NCCCCNC(=O)OC(C)(C)C)cc3)n3nc(-c4ccco4)nc23)n1 [Compound 13, tert-Butyl (4-(2-(4-(3-(2-(furan-2-yl)-8-methyl-8H-pyrazolo[4,3-e][1,2,4]triazolo[1,5-c]pyrimidin-5-yl)ureido)phenyl)acetamido)butyl)carbamate]	–	–	–	–	–	304 ± 20	3.46 ± 0.33	2% ± 2%	186 to 193 °C
Cn1cc2c(nc(NC(=O)Nc3ccc(CC(=O)NCCCCCNC(=O)OC(C)(C)C)cc3)n3nc(-c4ccco4)nc23)n1 [Compound 14, tert-Butyl (5-(2-(4-(3-(2-(furan-2-yl)-8-methyl-8H-pyrazolo[4,3-e][1,2,4]triazolo[1,5-c]pyrimidin-5-yl)ureido)phenyl)acetamido)pentyl)carbamate]	–	–	–	–	–	376 ± 96	4.47 ± 1.06	14% ± 3%	–
Cn1cc2c(nc(NC(=O)Nc3ccc(CC(=O)NCCOCCOCCNC(=O)OC(C)(C)C)cc3)n3nc(-c4ccco4)nc23)n1 [Compound 15, tert-Butyl (2-(2-(2-(2-(4-(3-(2-(furan-2-yl)-8-methyl-8H-pyrazolo[4,3-e][1,2,4]triazolo[1,5-c]pyrimidin-5-yl)ureido)phenyl)acetamido)-ethoxy)ethoxy)ethyl)carbamate]	–	–	–	–	–	456 ± 96	74.8 ± 10.1	7% ± 5%	157 to 165 °C
Cn1cc2c(nc(NC(=O)Nc3ccc(CC(=O)NCCCOCCOCCOCCCNC(=O)OC(C)(C)C)cc3)n3nc(-c4ccco4)nc23)n1 [Compound 16, tert-Butyl (1-(4-(3-(2-(furan-2-yl)-8-methyl-8H-pyrazolo[4,3-e][1,2,4]triazolo[1,5-c]pyrimidin-5-yl)ureido)phenyl)-2-oxo-7,10,13-trioxa-3-azahexadecan-16-yl)carbamate]	–	–	–	–	–	327 ± 32	82.4 ± 20.1	11% ± 5%	151 to 158 °C
Cn1cc2c(nc(NC(=O)Nc3ccc(CC(=O)NCCCN)cc3)n3nc(-c4ccco4)nc23)n1.O=C(O)C(F)(F)F [Compound 17, N-(3-aminopropyl)-2-(4-(3-(2-(furan-2-yl)-8-methyl-8H-pyrazolo[4,3-e][1,2,4]triazolo[1,5-c]pyrimidin-5-yl)ureido)phenyl)acetamide trifluoroacetate salt]	–	–	–	–	–	175 ± 27	8.06 ± 2.47	9% ± 3%	142 to 150 °C
Cn1cc2c(nc(NC(=O)Nc3ccc(CC(=O)NCCCCN)cc3)n3nc(-c4ccco4)nc23)n1.O=C(O)C(F)(F)F [Compound 18, N-(4-Aminobutyl)-2-(4-(3-(2-(furan-2-yl)-8-methyl-8H-pyrazolo[4,3-e][1,2,4]triazolo[1,5-c]pyrimidin-5-yl)ureido)phenyl)acetamide trifluoroacetate salt]	–	–	–	–	–	172 ± 33	6 ± 1.29	4% ± 1%	167 to 173 °C
Cn1cc2c(nc(NC(=O)Nc3ccc(CC(=O)NCCCNC(=S)Nc4ccc5c(c4)C(=O)OC54c5ccc(O)cc5Oc5cc(O)ccc54)cc3)n3nc(-c4ccco4)nc23)n1 [Compound 22, N-(3-(3-(Fluorescein-5-yl)thioureido)propyl)-2-(4-(3-(2-(furan-2-yl)-8-methyl-8H-pyrazolo[4,3-e][1,2,4]triazolo[1,5-c]pyrimidin-5-yl)ureido)phenyl)acetamide]	–	–	–	–	–	110 ± 18	104 ± 44	27% ± 1%	–
Cn1cc2c(nc(NC(=O)Nc3ccc(CC(=O)NCCCCNC(=S)Nc4ccc5c(c4)C(=O)OC54c5ccc(O)cc5Oc5cc(O)ccc54)cc3)n3nc(-c4ccco4)nc23)n1 [Compound 23, N-(4-(3-(Fluorescein-5-yl)thioureido)butyl)-2-(4-(3-(2-(furan-2-yl)-8-methyl-8H-pyrazolo[4,3-e][1,2,4]triazolo[1,5-c]pyrimidin-5-yl)ureido)phenyl)acetamide]	–	–	–	–	–	60.4 ± 6.2	73.6 ± 14.7	28% ± 8%	–
Cn1cc2c(nc(NC(=O)Nc3ccc(CC(=O)NCCCCCNC(=S)Nc4ccc5c(c4)C(=O)OC54c5ccc(O)cc5Oc5cc(O)ccc54)cc3)n3nc(-c4ccco4)nc23)n1 [Compound 24, N-(5-(3-(Fluorescein-5-yl)thioureido)pentyl)-2-(4-(3-(2-(furan-2-yl)-8-methyl-8H-pyrazolo[4,3-e][1,2,4]triazolo[1,5-c]pyrimidin-5-yl)ureido)phenyl)acetamide]	–	–	–	–	–	106 ± 14	96.7 ± 26.9	21% ± 5%	–
Cn1cc2c(nc(NC(=O)Nc3ccc(CC(=O)NCCOCCOCCNC(=S)Nc4ccc5c(c4)C(=O)OC54c5ccc(O)cc5Oc5cc(O)ccc54)cc3)n3nc(-c4ccco4)nc23)n1 [Compound 25, N-(2-(2-(2-(3-(Fluorescein-5-yl)thioureido)ethoxy)ethoxy)ethyl)-2-(4-(3-(2-(furan-2-yl)-8-methyl-8H-pyrazolo[4,3-e][1,2,4]triazolo[1,5-c]pyrimidin-5-yl)ureido)phenyl)acetamide]	–	–	–	–	–	95.7 ± 25.4	137 ± 28	29% ± 1%	–
Cn1cc2c(nc(NC(=O)Nc3ccc(CC(=O)NCCCOCCOCCOCCCNC(=S)Nc4ccc5c(c4)C(=O)OC54c5ccc(O)cc5Oc5cc(O)ccc54)cc3)n3nc(-c4ccco4)nc23)n1 [Compound 26, N-(1((Fluorescein-5-yl)amino)-1-thioxo-6,9,12-trioxa-2-azapentadecan-15-yl)-2-(4-(3-(2-(furan-2-yl)-8-methyl-8H-pyrazolo[4,3-e][1,2,4]triazolo[1,5-c]pyrimidin-5-yl)ureido)phenyl)acetamide]	–	–	–	–	–	91.5 ± 20	207 ± 95	32% ± 6%	–
C#CCCC(=O)Nc1nc2nn(C)cc2c2nc(-c3ccco3)nn12 [Compound 36, N-(2-(furan-2-yl)-8-methyl-8H-pyrazolo[4,3-e][1,2,4]triazolo[1,5-e]pyrimidin-5-yl)pent-4-ynamide]	–	–	–	–	–	133 ± 37	11 ± 0.6	55% ± 4%	–
C#CCCCC(=O)Nc1nc2nn(C)cc2c2nc(-c3ccco3)nn12 [Compound 37, N-(2-(furan-2-yl)-8-methyl-8H-pyrazolo[4,3-e][1,2,4]triazolo[1,5-c]pyrimidin-5-yl)hex-5-ynamide]	–	–	–	–	–	199	4.11 ± 0.93	–	210 to 216 °C (dec.)
Cn1cc2c(nc(NC(=O)CCCc3cn(CCCCCCNC(=O)c4ccc(-c5c6ccc(=N)c(S(=O)(=O)O)c-6oc6c(S(=O)(=O)O)c(N)ccc56)c(C(=O)O)c4)nn3)n3nc(-c4ccco4)nc23)n1 [MRS5763]	–	–	–	–	–	90	31.8	–	–
